Drawing on PubChem BioAssay (NCI), this text covers GI50 and TGI for eleven compounds.

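Test compounds were applied to cells in 96-well plates for 48 hours at 5 doses. The concentration for 50% growth inhibition is given as GI50. TGI: concentration producing complete growth inhibition.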

Holding throughout (test): NCI-60 cell line screen, 48 h
Assay [1] has as its system HCC-2998 colon.
The subject of assay [2] is HCT-15 colon.
For assay [3], the system named is SK-MEL-28 melanoma.
Assay [4] deals with IGROV1 ovarian.
Assay [5] concerns 786-0 renal.
Assay [6] has as its system NCI-H226 lung.
Assay [7] relates to MOLT-4 leukemia.
Assay [8] relates to OVCAR-3 ovarian.
The test system of assay [9] is CCRF-CEM leukemia.
Assay [10] relates to EKVX NSCLC.

`CNCCCNc1ccnc2cc(Cl)ccc12`: the GI50 was 28.7 µM in assay [1]; 23.3 µM in assay [2]; 15.5 µM in assay [3]; 18.8 µM in assay [4]; 32.9 µM in [5]; 25.9 µM in [6]. The GI50 in assay [7] is 20.6 µM; in assay [8], 27.6 µM. Besides, the TGI in assay [1] is above 100 µM; in assay [2] it was 94.4 µM; in [3], 34.6 µM; in assay [4], 63.8 µM; in assay [5], above 100 µM; in assay [6], 87.5 µM. In addition, the TGI in assay [7] is 69.9 µM; in [8] it was 95.5 µM.
With `Nc1c(C(=O)Nc2ccccn2)sc2nc3c(cc12)C(=O)CCC3`, the GI50 is 0.79 µM in assay [9]; 3.15 µM in assay [1]; 0.812 µM in [2]; 13.4 µM in assay [3]; 2.23 µM in [4]; 1.33 µM in [5]. Moreover, the GI50 is 3.62 µM in assay [6], above 100 µM in [7] and 0.792 µM in assay [8]. Moreover, the TGI in assay [9] is above 100 µM; in assay [1] it was above 100 µM; in assay [2], above 100 µM; in [3] it was above 100 µM; in assay [4], above 100 µM; in assay [5], 44.6 µM. For the same compound, the values for the TGI in assay [6], in [7] and in assay [8] were above 100 µM, above 100 µM and 14.7 µM, respectively.
Turning to `COc1nc(=O)n(C2C=CC(=O)O2)cc1F` (stereo not drawn), the GI50 was 12.9 µM in assay [1]; 11.3 µM in assay [10]; 2.59 µM in [2]; 6.92 µM in [3]; 8.69 µM in assay [4]; 12.1 µM in assay [5]. Besides, the GI50 in assay [6] was 16.9 µM; in assay [8], 3.26 µM. The TGI in assay [1] is 25.5 µM; in assay [10], above 100 µM; in [2], 12 µM; in assay [3] it was 20.1 µM; in [4] it was 23.2 µM; in assay [5], 25.1 µM. The TGI is 56.6 µM in [6] and 11.2 µM in [8].
As to `COc1cc(/C=C2\CCCCC3=C2N=C2SC(C)=CN2C3c2cc(OC)c(OC)c(OC)c2)cc(OC)c1OC` (stereo not drawn), the GI50 is 34.7 µM in assay [9]; 74 µM in assay [1]; 89.1 µM in assay [3]; 63.5 µM in [4]; 40.5 µM in assay [5]; 11 µM in [6]. Also, the GI50 is 0.542 µM in [7] and 23.7 µM in [8]. Further, the TGI in assay [9], in [1], in assay [3], in [4], in [5] and in assay [6] was above 100 µM in each case. In addition, the TGI in assay [7] was 78 µM; in assay [8], above 100 µM.
For the compound `CCN(CCNS(C)(=O)=O)c1ccc(N)c(C)c1`, the GI50 in assay [9] was 2.29 µM; in [1], 16.8 µM; in assay [2], 3.48 µM; in assay [3], 13.4 µM; in assay [4], 4.3 µM; in assay [5], 9.76 µM. For the same compound, the values for the GI50 in [6], in assay [7] and in assay [8] were 15.2 µM, 23.1 µM and 3.15 µM, respectively. The TGI in [9] came to 7.29 µM; in assay [1], 33.9 µM; in assay [2], 17.4 µM; in assay [3], 27.4 µM; in assay [4], 13.4 µM; in [5] it was 21.9 µM. The figures for the TGI in assay [6], in [7] and in assay [8] were 32.2 µM, 59.6 µM and 8.58 µM, respectively.
Turning to `COCOCCC#CCO`, the TGI in assay [9], in assay [1], in assay [10], in assay [2], in assay [3] and in assay [4] was above 100 µM in each case. The TGI in [5], in assay [7] and in assay [8] was above 100 µM in each case.
On to `COC(=O)c1c2c(c(C)[n+]([O-])c1C)C(=O)C(NCc1ccc(Br)cc1)=CC2=O`, for which the GI50 in assay [1] was 1.88 µM; in assay [2], 1.44 µM; in assay [3], 4.13 µM; in assay [5], 3.13 µM; in assay [7], 1.97 µM; in assay [8], 0.301 µM. For the same compound, the TGI is 4.83 µM in [1]; 3.91 µM in assay [2]; above 100 µM in [3]; 11.2 µM in assay [5]; 4.74 µM in assay [7]; 0.957 µM in assay [8].
Take `NC(N)=Nc1nc2ccccc2o1`: the GI50 in assay [9], in assay [10], in assay [2], in [3], in assay [4] and in assay [5] was above 100 µM in each case. Moreover, the GI50 in assay [6], in assay [7] and in assay [8] was above 100 µM in each case. The TGI in assay [9], in [10], in assay [2], in assay [3], in assay [4] and in [5] was above 100 µM in each case. Moreover, the TGI in assay [6], in assay [7] and in assay [8] was above 100 µM throughout.
For the compound `COC(=O)c1c(C)cc(OC)c(C/C=C(\C)CCCc2coc(C=C(C)C)c2)c1OC`, the TGI in [9], in assay [1], in [10], in [2], in [3] and in assay [4] was above 100 µM each time. In addition, the TGI in [5], in [7] and in [8] was above 100 µM throughout.
Consider `CC1=C(C(=O)Nc2ccccc2)C(c2ccc(Cl)c(Cl)c2)C(C(=O)Nc2ccccc2)=C(C)N1`, for which the TGI in assay [9] turned out to be 71.4 µM; in assay [10] it was 30.9 µM; in [2], 22.9 µM; in [3], 25.7 µM; in assay [4], 37.1 µM; in [5] it was 25.7 µM. For the same compound, the TGI in [7] stood at 3.04 µM; in [8], 25.3 µM.
For the compound `O=[N+]([O-])c1cccnc1N=Nc1c(O)[nH]c2ccccc12`, the TGI in [10] was 66 µM; in assay [2] it was 16.5 µM; in assay [3], 74.4 µM; in [4], 53.9 µM; in assay [5] it was 52 µM; in [6], above 100 µM. Moreover, the TGI in assay [7] and in assay [8] was above 100 µM each time.
